Assay results taken from patent US20220280462A1, “SOLID ORAL DOSAGE FORM COMPRISING NAPROXEN AND VITAMIN B1” (DSM IP ASSETS B.V., priority 2019, published 2022).
Structures can show the parent of a compound that is named as a salt.

Test: Bulk density, tapped density and Carr Index (flowability) of powders and granules
Type: physicochemical
Details: for Carr Index: 100×(1−BD/TD), greater than 25 indicates poor flowability
Procedure: The Carr Index is calculated by the formula 100×(1−BD/TD) and is used as an indication of the flowability.

Row | SMILES | BD (bulk density) | TD (tapped density) | Carr Index | Description (appearance of powder) | flowability (in words, from Carr Index)
1 | Cc1ncc(CO)c(CO)c1O.Cl [Pyridoxine Hydrochloride, pyridoxine hydrochloride] | 0.44 g/mL | 0.62 g/mL | 30 | – | –
2 | COc1ccc2cc([C@H](C)C(=O)O)ccc2c1 [Naproxen Sodium, naproxen sodium] | – | – | – | very lumpy | poor flowability
3 | Cc1ncc(C[n+]2csc(CCO)c2C)c(N)n1 [Thiamine hydrochloride, thiamine hydrochloride] | 0.26 g/mL | 0.46 g/mL | 44 | – | –
